Values of other authors as cited in patent publication US9376461B2, “Non-enzymatic synthesis of O-acetyl-ADP-ribose and analogues thereof” (GlaxoSmithKline LLC, priority 2011, dated 2016).

Tested on: starfish oocyte maturation
Conditions: infusion (microinjection) of OAADPR, presumably as the mixture of 2′ and 3′ isomers

**Q.** Which “effect on starfish oocyte maturation” value does the source give for 2′- and 3′-O-Acetyl-ADP-ribose [OAADPR] here?
**A.** delayed or halted
